Results as given in patent US20080118529A1 (priority 2005, published 2008).

How the values were obtained:
tPA = assay type: biochemical, human
factor XII [1] = molecular target: T1, factor XII (Homo sapiens, UniProt P00748); assay type: biochemical
U937 monocytes = assay type: cell-based, human; conditions: 1 h
factor XII [2] = molecular target: T1, factor XII; assay type: biochemical; remark: listed apart in the source
DOVA = tested on: DOVA; design: species or system chicken; conditions: in vivo
OVA = tested on: OVA; design: species or system chicken; conditions: in vivo
nOVA = tested on: nOVA; design: species or system Balb/c mice; conditions: mouse, in vivo
Sequence of nOVA (P01012 whole entry): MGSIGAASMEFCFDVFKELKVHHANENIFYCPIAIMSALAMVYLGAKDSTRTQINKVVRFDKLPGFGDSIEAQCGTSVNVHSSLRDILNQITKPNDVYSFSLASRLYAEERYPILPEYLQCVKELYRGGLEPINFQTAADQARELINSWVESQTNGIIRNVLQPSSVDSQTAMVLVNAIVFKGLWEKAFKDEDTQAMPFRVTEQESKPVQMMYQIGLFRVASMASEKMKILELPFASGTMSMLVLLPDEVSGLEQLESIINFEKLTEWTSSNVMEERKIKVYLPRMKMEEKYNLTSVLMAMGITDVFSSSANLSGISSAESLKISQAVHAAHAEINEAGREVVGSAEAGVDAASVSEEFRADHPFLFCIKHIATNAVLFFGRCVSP

T1 sequence (P00748 20-615): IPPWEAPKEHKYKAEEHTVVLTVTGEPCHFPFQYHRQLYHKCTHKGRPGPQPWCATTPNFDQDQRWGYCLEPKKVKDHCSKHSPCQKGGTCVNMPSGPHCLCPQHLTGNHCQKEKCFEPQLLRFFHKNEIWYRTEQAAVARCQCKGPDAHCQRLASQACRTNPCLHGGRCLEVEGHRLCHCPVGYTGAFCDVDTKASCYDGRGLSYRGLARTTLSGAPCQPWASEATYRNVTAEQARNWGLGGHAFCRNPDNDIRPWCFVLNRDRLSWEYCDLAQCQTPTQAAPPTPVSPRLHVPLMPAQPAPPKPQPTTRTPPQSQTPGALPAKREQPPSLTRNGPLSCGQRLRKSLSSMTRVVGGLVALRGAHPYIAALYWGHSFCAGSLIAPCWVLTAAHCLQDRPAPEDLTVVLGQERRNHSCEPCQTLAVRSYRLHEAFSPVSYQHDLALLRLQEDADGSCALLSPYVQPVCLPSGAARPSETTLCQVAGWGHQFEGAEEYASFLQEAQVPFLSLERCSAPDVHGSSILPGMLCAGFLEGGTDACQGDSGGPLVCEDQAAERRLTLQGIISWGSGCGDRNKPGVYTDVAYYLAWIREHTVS

CCCCCCCCCCCCCCCCCC[N+](C)(C)CCCCCCCCCCCCCCCCCC.[Br-] [DDA, dimethyl dioctadecyl ammonium bromide]
activation of tPA by adjuvants (tPA): activators of tPA

Cc1ccc2c(c1)sc(-c1ccc(N(C)C)cc1)[n+]2C.[Cl-] [ThT, Thioflavin T]
inhibition of factor XII activation by DXS500k and 80× diluted plasma (factor XII [1]): fully inhibited
inhibition of the stimulatory activity of FP13 K157G on factor XII autoactivation (factor XII [1]): effectively inhibits

Endostatin
TNFα RNA expression compared to LPS (U937 monocytes; 100 μg/ml amyloid endostatin, 260 μg/ml Hb-AGE, 1 μg/ml LPS, normalized to 18S): approximately 30%

Etanercept [Native Etanercept]
tPA/plasminogen activating potential of protein/antigen preparation (tPA): some tPA activation

control Hb: control haemoglobin, not glycated
TNFα RNA expression relative to endostatin and Hb-AGE (U937 monocytes; 260 μg/ml): approximately threefold lower
TNFα RNA upregulation relative to values after amyloid endostatin or glycated Hb stimulation (U937 monocytes; 260 μg/ml): ≤ 30%

dextran-sulphate [DXS500k]
activation of factor XII in the presence of prekallikrein and high molecular weight kininogen (factor XII [2]): only then effectively activated
activation of tPA by adjuvants (tPA): activators of tPA
factor XII activation by DXS500k (factor XII [1]): only a stimulatory factor for factor XII activation when 80× diluted plasma is present

glucagon [native glucagon]
tPA/plasminogen activating potential of protein/antigen preparation (tPA): some tPA activating potential

ovalbumin [nOVA]
anti-DOVA titer (DOVA): can not elicit
anti-OVA titer (OVA): can not elicit
anti-nOVA titer after one week (nOVA): no titer was detected
titer of anti-nOVA antibodies (nOVA): 610
